Source: patent US5939404A, “Cancer metastasis inhibitor containing a streptococcus agalactiae Ia type or Ib type surface polysaccharide as a main ingredient” (NGK Insulators, Ltd., priority 1997, dated 1999)

Assays:
[1] = system: adhesion between the cell-lined intravascular endothelial cell strain #5-1 and the cancer cells HL-60; assay: Adhesion inhibition of [35S]methionine-labeled HL-60 cancer cells to cell-lined intravascular endothelial cell strain #5-1 (FIGS. 9(a), 9(b)); assay type: cell-based, human; conditions: at a concentration at which the Ia or Ib sugar chain exhibited adhesion inhibiting activity
Description: (4) Next, how much adhesion of the cancer cell to the intravascular endothelial cells thus cultivated was inhibited by the addition of the sugar chain obtained above to the intravascular endothelial cells was examined. First, intravascular endothelial cells were placed on one plane of a 96-well plate, and appearance of E-selectin was induced by adding interleukin-1β to the cells. The cultivation for about 3 hours made E-selectin appear. The Ia type or Ib type sugar chain was added to it, and 1×10^4 cancer cells labeled with [^35 S] methionine were added to it, and the mixture was left at 37° C. for 30 minutes as it was. Thereafter, the mixture was immersed in and washed with PBS, and those cancer cells not adhered were washed off. The cells were recovered by adding 100 μl of a 0.1 N aqueous solution of sodium hydroxide to each of the 96-well plates, and a residual radioactivity value was measured by using a liquid scintillation counter.

E-selectin = E-selectin appearance on intravascular endothelial cells by fluorescent microscopy with E-selectin antibody (FIG. 7); assay type: cell-based; conditions: interleukin-1β added (FIGS. 7(a), 7(b)) vs not added; human normal cells and strain #5
Description: FIGS. 7(a) through 7(d) are microphotographs obtained by photographing with a fluorescent microscope to confirm whether E-selectin was produced or not at the surfaces of the intravascular endothelial cells, through coloring the human normal intravascular endothelial cells and the cell-lined human intravascular endothelial cell strains #5 with E-selectin antibody. As compared with cases in which no interleukin-1β was added (FIGS. 7(c) and 7(d)), it is clear that appearance of E-selectin was induced in cases where interleukin-1β was added (FIGS. 7(a) and 7(b)).

[2] = system: adhesion of the cancer cells HL-60 to the intravascular endothelial cells; assay: Microscopic observation of adhesion of HL-60 cancer cells to intravascular endothelial cells (FIG. 8); assay type: cell-based, human; conditions: interleukin-1β added (FIG. 8b) vs not added (FIG. 8a)
Description: Slender, large cells are intravascular endothelial cells, and whitish, bright, round cells are cancer cells HL-60.

| Substance | adhesion inhibiting activity [1] | appearance of E-selectin (E-selectin) | adhesion of the cancer cells to the intravascular endothelial cells (microphotographs) [2] |
| --- | --- | --- | --- |
| colominic acid | not almost exhibited | – | – |
| interleukin-1β: added to the cells to induce appearance of E-selectin | – | induced | more conspicuous |
